# pIC50: −log10 of the molar value.
# Assays:
# [1] = target: T1, cholesteryl ester transfer protein (Homo sapiens, UniProt P11597); assay: In vitro test for the ability to inhibit cholesteryl ester transfer; type: biochemical; conditions: [3H]-cholesteryl oleate transfer from rHDL-agarose to LDL; human plasma as CETP source; 37° C.; 16-10000 nM, duplicate
# T1 construct: As a source of cholesteryl ester transfer protein, plasma from healthy humans was used; from tissue; host or cells: plasma from healthy humans
# T1 sequence (P11597 18-493): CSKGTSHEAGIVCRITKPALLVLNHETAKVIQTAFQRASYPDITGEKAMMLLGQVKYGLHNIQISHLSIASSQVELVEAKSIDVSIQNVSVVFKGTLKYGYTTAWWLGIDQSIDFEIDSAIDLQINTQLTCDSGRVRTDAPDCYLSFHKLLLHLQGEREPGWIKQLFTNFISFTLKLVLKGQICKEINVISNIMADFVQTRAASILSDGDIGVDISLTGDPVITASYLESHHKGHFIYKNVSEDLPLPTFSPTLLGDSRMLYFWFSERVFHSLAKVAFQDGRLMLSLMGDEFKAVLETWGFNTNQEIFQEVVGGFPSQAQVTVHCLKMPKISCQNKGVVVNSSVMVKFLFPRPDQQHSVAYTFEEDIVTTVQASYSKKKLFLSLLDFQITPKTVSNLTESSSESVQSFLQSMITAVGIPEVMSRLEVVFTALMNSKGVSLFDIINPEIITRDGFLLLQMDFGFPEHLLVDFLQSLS
# Procedure, shortened: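 Human plasma served as the CETP source, with human LDL (0.25 mg/ml) as acceptor and agarose-immobilised recombinant HDL carrying [3H]-cholesteryl oleate (0.25 mg/ml) as donor, at 37 °C. Compounds were run in duplicate at 16–10000 nM. Transferred radioactivity in the supernatant was counted by beta detection, and IC50 was fitted from the fraction of label transferred to LDL.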
# golden syrian hamsters = assay: Test for anti-hyperlipidemia activity in hamsters (blood HDL-c levels); type: in vivo; conditions: male golden syrian hamsters; 3 mg/kg orally for 5 days; serum HDL-cholesterol 4 hours after last administration; vs vehicle control
# Source text: […] Test for Anti-Hyderlipidemia Activity in Hamsters
# 1. Experimental animals As test animals, 8-week-old male golden syrian hamsters were purchased and used in the experimental. The animal facility was kept at constant temperature and constant humidity with a 12-hr dark/12-hr light cycle, and the animals were allowed to access food and water ad libitum.
# 2. Experimental for Anti-Hyperlipidemia Activity in Hamsters
# The test animals were used in the test after an acclimation of 1 week. The test animals were divided according to body weight into several groups, each consisting of 5-8 animals. 3 mg/kg of each test compound (CETP inhibitor) was administered orally to the animals. Each test compounds was suspended in a solvent vehicle that is a solution of 5% ethanol, 10% solutol and 85% deionized water (DW), to be used. Each of test compounds suspended in a solvent vehicle was administered orally to the […] for 5 days. To the control group, a solvent vehicle itself was administered. And then, after 4 hours from the last administration, blood was collected through the cardiac puncture. The collected blood was centrifuged at 3000 rpm for 15 minutes, and the concentration of HDL-cholesterol (Biosystem) in the separated serum was measured using a biochemical analyzer (ILab 300 plus, Instrumentation Laboratory).
# 3. Statistical Processing
# All the results were expressed as mean±SEM, and each test group and the control group were compared using one-way ANOVA test (Dunnett's test, p<0.001) in order to determine the effect of each test group.
# [2] = cited from earlier work
pIC50 [1],SMILES,HDL-c Increase (%) (golden syrian hamsters),other results
7.70,"COc1ccc(C(F)(F)F)cc1C1=C(CN2C(=O)O[C@H](c3cc(C(F)(F)F)cc(C(F)(F)F)c3)[C@@H]2C)CC(C)(C)CC1 [Compound 97, (4S,5R)-5-(3,5-bis(trifluoromethyl)phenyl)-3-((2-(2-methoxy-5-(trifluoromethyl)phenyl)-5,5-dimethylcyclohex-1-enyl)methyl)-4-methyloxazolidin-2-one]",22,–
6.70,COc1cc(F)c(C(C)C)cc1C1=C(CN2C(=O)O[C@H](c3cc(C(F)(F)F)cc(C(F)(F)F)c3)[C@@H]2C)CC(C)CC1 (stereo partly drawn) [Compound 25],33,–
–,CCC(CC)CC1(C(=O)Nc2ccccc2SC(=O)C(C)C)CCCCC1 [Dalcetrapib],–,rise in HDL-C ([2]; in vivo): insufficient rise in HDL-C
–,"COc1cc(F)c(C(C)C)cc1C1=C(CN2C(=O)O[C@H](c3cc(C(F)(F)F)cc(C(F)(F)F)c3)[C@@H]2C)CC(C)(C)CC1 [Compound 19, (4S,5R)-5-(3,5-bis(trifluoromethyl)phenyl)-3-((2-(4-fluoro-5-isopropyl-2-methoxyphenyl)-5,5-dimethylcyclohex-1-enyl)methyl)-4-methyloxazolidin-2-one]",35,–
–,O=C(O)c1cccnc1 [Niacin],–,side effects ([2]; relatively large doses): facial flushing
7.85,"COc1cc(F)c(C(C)C)cc1C1=C(CN2C(=O)O[C@H](c3cc(C(F)(F)F)cc(C(F)(F)F)c3)[C@@H]2C)CC2(CC1)CC2 [Compound 274, (4S,5R)-5-(3,5-bis(trifluoromethyl)phenyl)-3-((6-(4-fluoro-5-isopropyl-2-methoxyphenyl)spiro[2.5]oct-5-en-5-yl)methyl)-4-methyloxazolidin-2-one]",21,–
8.30,"COc1cc(F)c(C(C)C)cc1C1=C(CN2C(=O)O[C@H](c3cc(C(F)(F)F)cc(C(F)(F)F)c3)[C@@H]2C)CC(C(F)(F)F)CC1 (stereo partly drawn) [Compound 48, (4S,5R)-5-(3,5-bis(trifluoromethyl)phenyl)-3-((2-(4-fluoro-5-isopropyl-2-methoxyphenyl)-5-(trifluoromethyl)cyclohex-1-enyl)methyl)-4-methyloxazolidin-2-one]",41,–
8.10,"COc1ccc(N(C)C(C)=O)cc1C1=C(CN2C(=O)O[C@H](c3cc(C(F)(F)F)cc(C(F)(F)F)c3)[C@@H]2C)CC(C)(C)CC1 [Compound 112, N-(3-(2-(((4S,5R)-5-(3,5-bis(trifluoromethyl)phenyl)-4-methyl-2-oxooxazolidin-3-yl)methyl)-4,4-dimethylcyclohex-1-enyl)-4-methoxyphenyl)-N-methylacetamide]",43,–
7.30,"COc1cc(F)c(C(C)C(F)(F)F)cc1C1=C(CN2C(=O)O[C@H](c3cc(C(F)(F)F)cc(C(F)(F)F)c3)[C@@H]2C)CC(C)(C)CC1 (stereo partly drawn) [Compound 132, (4S,5R)-5-(3,5-bis(trifluoromethyl)phenyl)-3-((2-(4-fluoro-2-methoxy-5-(1,1,1-trifluoropropan-2-yl)phenyl)-5,5-dimethylcyclohex-1-enyl)methyl)-4-methyloxazolidin-2-one]",33,–
8.22,"COc1cc(F)c(C2(C)CC2)cc1C1=C(CN2C(=O)O[C@H](c3cc(C(F)(F)F)cc(C(F)(F)F)c3)[C@@H]2C)CC(C)(C)CC1 [Compound 302, (4S,5R)-5-(3,5-bis(trifluoromethyl)phenyl)-3-((2-(4-fluoro-2-methoxy-5-(1-methylcyclopropyl)phenyl)-5,5-dimethylcyclohex-1-enyl)methyl)-4-methyloxazolidin-2-one]",38,–
7.92,"COc1ccc(CC(C)(C)C(=O)O)cc1C1=C(CN2C(=O)O[C@H](c3cc(C(F)(F)F)cc(C(F)(F)F)c3)[C@@H]2C)CC(C)(C)CC1 [Compound 286, 3-(3-(2-(((4S,5R)-5-(3,5-bis(trifluoromethyl)phenyl)-4-methyl-2-oxooxazolidin-3-yl)methyl)-4,4-dimethylcyclohex-1-enyl)-4-methoxyphenyl)-2,2-dimethylpropanoic acid]",42,–
5.96,"COC(=O)c1ccc(OC)c(C2=C(CN3C(=O)O[C@H](c4cc(C(F)(F)F)cc(C(F)(F)F)c4)[C@@H]3C)CCCC2)c1 [Compound 36, methyl 3-(2-(((4S,5R)-5-(3,5-bis(trifluoromethyl)phenyl)-4-methyl-2-oxooxazolidin-3-yl)methyl)cyclohex-1-enyl)-4-methoxybenzoate]",11,–
–,CCOC(=O)N1c2ccc(C(F)(F)F)cc2[C@@H](N(Cc2cc(C(F)(F)F)cc(C(F)(F)F)c2)C(=O)OC)C[C@H]1CC [Torcetrapib],–,"effect on blood pressure ([2]; clinical trials terminated): increases in blood pressure; effect on mortality ([2]; clinical trials terminated): increase in mortality; effect on hormone levels ([2]; hormones associated with elevation in blood pressure): increases the levels of hormones, such as aldosterone and cortisol; effect on vascular wall ([2]; in vivo): increases the thickness of the vascular wall to cause inflammation"
7.70,"COc1ccc(C(C)C)cc1C1=C(CN2C(=O)O[C@H](c3cc(C(F)(F)F)cc(C(F)(F)F)c3)[C@@H]2C)CC(C(F)(F)F)CC1 (stereo partly drawn) [Compound 108, (4S,5R)-5-(3,5-bis(trifluoromethyl)phenyl)-3-((2-(5-isopropyl-2-methoxyphenyl)-5-(trifluoromethyl)cyclohex-1-enyl)methyl)-4-methyloxazolidin-2-one]",23,–
8.00,"COc1ccc(C(C)(C)C)cc1C1=C(CN2C(=O)O[C@H](c3cc(C(F)(F)F)cc(C(F)(F)F)c3)[C@@H]2C)CC(C)(C)CC1 [Compound 115, (4S,5R)-5-(3,5-bis(trifluoromethyl)phenyl)-3-((2-(5-tert-butyl-2-methoxyphenyl)-5,5-dimethylcyclohex-1-enyl)methyl)-4-methyloxazolidin-2-one]",29,–
–,"COc1ccc(N(C)C(=O)C(C)C)cc1C1=C(CN2C(=O)O[C@H](c3cc(C(F)(F)F)cc(C(F)(F)F)c3)[C@@H]2C)CC(C)(C)CC1 [Compound 113, N-(3-(2-(((4S,5R)-5-(3,5-bis(trifluoromethyl)phenyl)-4-methyl-2-oxooxazolidin-3-yl)methyl)-4,4-dimethylcyclohex-1-enyl)-4-methoxyphenyl)-N-methylisobutyramide]",17,–
